Columns and labels:
[1] = cited from earlier work
[2] = Dissolution studies of arsenic salts in 100 mL water with stirring at room temperature (pH 7 and pH 1-2); type: physicochemical; conditions: for Dissolution Time at pH 1-2 / Final pH after dissolution / Dissolution Time at pH 7: 100 mL, stirring, room temperature
[3] = Dissolution of arsenic trioxide in 0.1M NaOH (pH 13); type: physicochemical
Experimental: A further dissolution experiment was conducted in a solution of 0.1M NaOH (pH 13) and, as expected, more arsenic trioxide could be dissolved with a 100% level reached between 15-20 minutes as indicated in the table below.

[4] = Trial 1: test dissolution of arsenic trioxide solely in sodium bicarbonate solution; type: physicochemical; conditions: 50 mg in 2540 mg sodium bicarbonate / approximately 27.2 mls water, with heating
Experimental: 2540 mg of Sodium Bicarbonate was dissolved in approximately 27.2 mls water (dissolved in less than 5 minutes). 50 mg Arsenic Trioxide was then added to this bicarbonate solution.

[5] = Dissolution of 1 mg arsenic trioxide capsule in 0.1M HCl and purified water with 0.5% BKC; type: physicochemical; conditions: 1 mg capsule RX500950.01, 500 ml medium, 37° C., paddle 50 rpm
Experimental: To manufacture the components for insertion into the capsule all ingredients were sieved through a 500 μm sieve into a sealable jar and blended for 20 minutes in a tumble blender. The blended powder was filled into the Size 4 white hard gelatin capsules at a fill weight of 140 mg.
For the dissolution experiments the medium was 0.1M HCl and purified water with a volume of 500 ml also containing 0.5% benzalkonium chloride (BKC) at 37° C. The paddle stir speed was 50 rpm. The capsule shell disrupted within three minutes and all contents were expelled in less than five minutes. Only 5% arsenic trioxide was dissolved after 20 minutes. Even after 19 hours only 60% was dissolved. The presence of the citric acid reduced the pH of the medium from ˜8.0 to ˜7.3. Given the anticipated increase in solubility at a higher pH, these experiments were repeated at a higher pH as indicated in the tables below wherein the mean and range values represented percentage dissolution of the arsenic trioxide.

[6] = all three mediums: simulated gastric fluid pH 1.24, pH 4.5, pH 7.0; 150 mls, 37° C., spin bar
Experimental: 100 mg of arsenic trioxide was dissolved in 10 mL of 0.5M NaOH with heat (<ten minutes). 250 mg Sodium Carbonate was then added (dissolves almost straight away) and excess water evaporated.
Dissolution experiments were then carried out on the AC01 at 3 different pH levels. […] Prior to addition of the capsules 150 mls of the dissolution solution was heated to 37° C. and the solution contained a spin bar at a speed of 2. The appropriate capsule was then added.

[7] = not dissolved within the time given

O=C([O-])O.[Na+] [Sodium Bicarbonate]
pH 0.1M solution [1]: 8.3

O=[As][O-].[Na+] [Sodium meta arsenite, sodium meta arsenite]
Dissolution Time at pH 1-2 [2]: 55 seconds - Final pH after
Final pH after dissolution ([2]; dissolution at pH 1-2): dissolution = 1.27
Final pH after dissolution ([2]; dissolution at pH 7): pH after dissolution = 10.2
Time to dissolve at pH 1-2 ([2]; pH 1-2): less than one
Time to dissolve at pH 7 ([2]; pH 7): less than 2 minutes

Arsenic trioxide
Time at which 100% dissolution level is reached [3]: 15 to 20 min
% Recovered (weight Corrected) Mean ([3]; 5 minutes): 12%
% Recovered (weight Corrected) Mean ([3]; 10 minutes): 65%
% Recovered (weight Corrected) Mean ([3]; 15 minutes): 96%
% Recovered (weight Corrected) Mean ([3]; 20 minutes): 109%
% Recovered (weight Corrected) Mean ([3]; 25 minutes): 116%
% Recovered (weight Corrected) Mean ([3]; 30 minutes): 114%
Dissolution Time at pH 1-2 [2, 7]: Not dissolved in 3 hours
Dissolution Time at pH 7 [2, 7]: Not dissolved in 3 hours
Dissolution in sodium bicarbonate solution [4]: would not dissolve even with heating
arsenic trioxide dissolved ([5]; after 20 minutes): 5%
arsenic trioxide dissolved ([5]; after 19 hours): 60%

Sodium arsenic carbonate [AC01]
Time to dissolution of powder from capsule [6]: less than two
Dissolution Time at pH 1-2 [2]: <5-10 seconds - Final pH
Dissolution Time at pH 7 [2]: 40 seconds - Final pH after
Final pH after dissolution ([2]; dissolution at pH 1-2): after dissolution = 1.13
Final pH after dissolution ([2]; dissolution at pH 7): dissolution = pH 8.95

Source: US10493099B2, “Compositions containing arsenic and their use in methods of treatment” (Eupharma Pty Ltd, priority 2015, dated 2019)
